In patent publication US6585996B1, “Lipid-soluble thiamine derivatives in the treatment of autism” (Westlake Laboratories, Inc., priority 2002, dated 2003):

Tests used:
children with autism = conditions: a few children with autism
Description: A few children with autism have been exposed to a dermal preparation since the study has been completed.

autistic children = conditions: 10 subjects, 50 mg TTFD twice a day, rectal suppository, two months
Description: In a pilot study, ten autistic children, eight boys and two girls, were administered 50 mg of TTFD twice a day through a rectal suppository for a two-month trial period. All the patients were previously diagnosed with autism as defined by those in the field. Parents were asked to fill in a symptom check form to assess the symptoms of the autistic children by giving a numerical score as to severity.
Both forms are scored by computer and were designed by the Autism Research Institute specifically for research of this spectrum of disease. The first form, Form E2, is a diagnostic tool that allocates points on a symptomatic basis. The higher the score, the closer the patient comes to being considered a classic case of autism. The common form of autism that is occurring within the pilot test group seldom reaches the score that indicates classic autism, defined as the inability of a person to relate themself in the ordinary way to people and situations from the beginning of life.
The second form, the ATEC (Autism Treatment Evaluation Checklist) form, also allocates points on a symptomatic basis. […] In addition to completing the forms based on patient behavior, physiological changes were also measured.
Clinical improvement, as shown by the bars, is obtained by subtracting the final ATEC score from that calculated at the outset of the study.

CC(=C(CCO)SSCC1CCCO1)N(C=O)Cc1cnc(C)nc1N (stereo in doubt) [TTFD, thiamine tetrahydrofurfuryl disulfide]
Clinical results of oral versus rectal administration: does not appear to give as striking clinical results as rectal administration | Clinical condition with dermal preparation (children with autism): immediate improvement in the child's condition was noted | Subjects showing clinical improvement in their autistic disorder (autistic children): Eight of the 10
